Test results reported in the CheMixHub viscosity set.
Several values for one entry are separate records, joined by “and”; a condition that tells them apart may be missing. Equal entries are not always repeated. ± gives the uncertainty stated by the source.

Assay: xn = mol fraction of the nth substance listed

O=C[C@H](O)[C@@H](O)[C@H](O)[C@H](O)CO + O
Details | viscosity
293.15 K, 101 kPa, x1 = 0.002 | 1.043 ± 0.022 mPa·s
293.15 K, 101 kPa, x1 = 0.0026 | 1.079 ± 0.011 mPa·s
293.15 K, 101 kPa, x1 = 0.005 | 1.13 ± 0.024 mPa·s
293.15 K, 101 kPa, x1 = 0.011 | 1.24 ± 0.08 mPa·s and 1.34 ± 0.1 mPa·s
293.15 K, 101 kPa, x1 = 0.0244 | 1.95 ± 0.12 mPa·s
293.15 K, 101 kPa, x1 = 0.0411 | 3.01 ± 0.18 mPa·s
293.15 K, 101 kPa, x1 = 0.0625 | 5.4 ± 0.33 mPa·s
293.15 K, 101.3 kPa, x1 = 0.001 | 1.021 ± 0.022 mPa·s
298.15 K, 100 kPa, x1 = 0.0009 | 1.019 ± 0.0084 mPa·s
298.15 K, 101 kPa, x1 = 0.0002 | 0.9013 ± 0.09 mPa·s
298.15 K, 101 kPa, x1 = 0.0005 | 0.9169 ± 0.092 mPa·s
298.15 K, 101 kPa, x1 = 0.001 | 0.9634 ± 0.097 mPa·s
298.15 K, 101 kPa, x1 = 0.0018 | 0.9874 ± 0.099 mPa·s
298.15 K, 101 kPa, x1 = 0.002 | 0.9826 ± 0.098 mPa·s
298.15 K, 101 kPa, x1 = 0.00413 | 0.9934 ± 0.025 mPa·s
298.15 K, 101 kPa, x1 = 0.005 | 1.015 ± 0.021 mPa·s
298.15 K, 101 kPa, x1 = 0.00623 | 1.03 ± 0.026 mPa·s
298.15 K, 101 kPa, x1 = 0.011 | 1.15 ± 0.08 mPa·s
298.15 K, 101 kPa, x1 = 0.02 | 1.42 ± 0.013 mPa·s
298.15 K, 101 kPa, x1 = 0.0244 | 1.68 ± 0.1 mPa·s
298.15 K, 101 kPa, x1 = 0.0411 | 2.48 ± 0.15 mPa·s
298.15 K, 101 kPa, x1 = 0.0625 | 4.48 ± 0.27 mPa·s
298.15 K, 101 kPa, x1 = 0.0909 | 8.75 ± 0.53 mPa·s and 12.75 ± 0.77 mPa·s
303.15 K, 100 kPa, x1 = 0.0009 | 0.9332 ± 0.0081 mPa·s
303.15 K, 101 kPa, x1 = 0.002 | 0.8392 ± 0.017 mPa·s
303.15 K, 101 kPa, x1 = 0.004 | 0.8723 ± 0.018 mPa·s
303.15 K, 101 kPa, x1 = 0.005 | 0.9084 ± 0.019 mPa·s
303.15 K, 101.3 kPa, x1 = 0.001 | 0.814 ± 0.018 mPa·s
308.15 K, 100 kPa, x1 = 0.0009 | 0.8522 ± 0.0078 mPa·s
308.15 K, 101 kPa, x1 = 0.00209 | 0.7871 ± 0.02 mPa·s
308.15 K, 101 kPa, x1 = 0.004 | 0.7909 ± 0.017 mPa·s
308.15 K, 101 kPa, x1 = 0.00413 | 0.8216 ± 0.021 mPa·s
308.15 K, 101 kPa, x1 = 0.005 | 0.8313 ± 0.017 mPa·s
308.15 K, 101 kPa, x1 = 0.008982 | 0.911 ± 0.019 mPa·s
308.15 K, 101 kPa, x1 = 0.011 | 0.98 ± 0.06 mPa·s and 1.05 ± 0.07 mPa·s
308.15 K, 101 kPa, x1 = 0.01441 | 1.037 ± 0.022 mPa·s
308.15 K, 101 kPa, x1 = 0.0179 | 1.134 ± 0.024 mPa·s
308.15 K, 101 kPa, x1 = 0.02 | 1.133 ± 0.0097 mPa·s and 1.086 ± 0.11 mPa·s
308.15 K, 101 kPa, x1 = 0.02311 | 1.278 ± 0.028 mPa·s
308.15 K, 101 kPa, x1 = 0.0244 | 1.34 ± 0.08 mPa·s
308.15 K, 101 kPa, x1 = 0.02991 | 1.442 ± 0.032 mPa·s
308.15 K, 101 kPa, x1 = 0.03509 | 1.711 ± 0.038 mPa·s
308.15 K, 101 kPa, x1 = 0.0411 | 1.94 ± 0.12 mPa·s
308.15 K, 101 kPa, x1 = 0.05203 | 2.579 ± 0.059 mPa·s
308.15 K, 101 kPa, x1 = 0.0591 | 3.084 ± 0.071 mPa·s
308.15 K, 101 kPa, x1 = 0.0625 | 3.31 ± 0.2 mPa·s
308.15 K, 101 kPa, x1 = 0.0909 | 6.58 ± 0.4 mPa·s and 9 ± 0.55 mPa·s
313.15 K, 100 kPa, x1 = 0.0009 | 0.7853 ± 0.0076 mPa·s
313.15 K, 101 kPa, x1 = 0.002 | 0.6943 ± 0.015 mPa·s
313.15 K, 101 kPa, x1 = 0.004 | 0.7341 ± 0.015 mPa·s
313.15 K, 101 kPa, x1 = 0.005 | 0.7858 ± 0.016 mPa·s
313.15 K, 101 kPa, x1 = 0.011 | 0.81 ± 0.05 mPa·s and 0.97 ± 0.06 mPa·s
313.15 K, 101 kPa, x1 = 0.02 | 1.022 ± 0.0089 mPa·s and 0.9825 ± 0.098 mPa·s
313.15 K, 101 kPa, x1 = 0.0244 | 1.19 ± 0.07 mPa·s
313.15 K, 101 kPa, x1 = 0.0411 | 1.69 ± 0.1 mPa·s
313.15 K, 101 kPa, x1 = 0.0625 | 2.96 ± 0.18 mPa·s
313.15 K, 101 kPa, x1 = 0.0909 | 4.88 ± 0.3 mPa·s and 5.67 ± 0.35 mPa·s
313.15 K, 101 kPa, x1 = 0.13 | 13.08 ± 0.79 mPa·s and 11.8 ± 3.1 mPa·s
313.15 K, 101.3 kPa, x1 = 0.001 | 0.671 ± 0.014 mPa·s
318.15 K, 101 kPa, x1 = 0.008982 | 0.756 ± 0.016 mPa·s
318.15 K, 101 kPa, x1 = 0.011 | 0.71 ± 0.04 mPa·s and 0.85 ± 0.05 mPa·s
318.15 K, 101 kPa, x1 = 0.01441 | 0.861 ± 0.018 mPa·s
318.15 K, 101 kPa, x1 = 0.0179 | 0.941 ± 0.02 mPa·s
318.15 K, 101 kPa, x1 = 0.02 | 0.9234 ± 0.0081 mPa·s and 0.8774 ± 0.088 mPa·s
318.15 K, 101 kPa, x1 = 0.02311 | 1.061 ± 0.023 mPa·s
318.15 K, 101 kPa, x1 = 0.0244 | 1.05 ± 0.06 mPa·s
318.15 K, 101 kPa, x1 = 0.02991 | 1.197 ± 0.026 mPa·s
318.15 K, 101 kPa, x1 = 0.03509 | 1.42 ± 0.032 mPa·s
318.15 K, 101 kPa, x1 = 0.0411 | 1.43 ± 0.09 mPa·s
318.15 K, 101 kPa, x1 = 0.05203 | 2.141 ± 0.049 mPa·s
318.15 K, 101 kPa, x1 = 0.0591 | 2.561 ± 0.06 mPa·s
318.15 K, 101 kPa, x1 = 0.0625 | 2.47 ± 0.15 mPa·s
318.15 K, 101 kPa, x1 = 0.0909 | 3.91 ± 0.24 mPa·s and 4.65 ± 0.28 mPa·s
318.15 K, 101 kPa, x1 = 0.13 | 10.56 ± 0.64 mPa·s and 8 ± 1.9 mPa·s
323.15 K, 101 kPa, x1 = 0.011 | 0.72 ± 0.04 mPa·s and 0.78 ± 0.05 mPa·s
323.15 K, 101 kPa, x1 = 0.02 | 0.8435 ± 0.0075 mPa·s and 0.7914 ± 0.079 mPa·s
323.15 K, 101 kPa, x1 = 0.0244 | 0.97 ± 0.06 mPa·s
323.15 K, 101 kPa, x1 = 0.0411 | 1.29 ± 0.08 mPa·s
323.15 K, 101 kPa, x1 = 0.0625 | 2.19 ± 0.13 mPa·s
323.15 K, 101 kPa, x1 = 0.0909 | 3.68 ± 0.22 mPa·s and 4.56 ± 0.28 mPa·s
323.15 K, 101 kPa, x1 = 0.13 | 8.63 ± 0.52 mPa·s and 7.5 ± 1.3 mPa·s

O=S(=O)([O-])[O-].[Co+2] + O
viscosity, 101.33 kPa
Details | x1 = 0.000905 | x1 = 0.002718 | x1 = 0.00453 | x1 = 0.006344 | x1 = 0.008159 | x1 = 0.04354 | x1 = 0.05633
298.15 K | – | – | – | – | – | 3.182 ± 0.088 mPa·s | –
308.15 K | 0.7454 ± 0.021 mPa·s | 0.799 ± 0.023 mPa·s | 0.8405 ± 0.024 mPa·s | 0.897 ± 0.025 mPa·s | 0.949 ± 0.026 mPa·s | – | –
313.15 K | 0.6751 ± 0.019 mPa·s | 0.7255 ± 0.021 mPa·s | 0.7615 ± 0.022 mPa·s | 0.814 ± 0.023 mPa·s | 0.8555 ± 0.024 mPa·s | – | –
323.15 K | 0.5699 ± 0.017 mPa·s | 0.6065 ± 0.018 mPa·s | 0.642 ± 0.019 mPa·s | 0.689 ± 0.02 mPa·s | 0.739 ± 0.021 mPa·s | – | 3.091 ± 0.082 mPa·s and 3.091 ± 0.081 mPa·s

CCCCCCCCCCCCCCCCCC + c1ccccc1
101 kPa, x2 = 0.5
Details | viscosity [mPa·s]
298 K | 2.123 ± 0.056
318 K | 1.501 ± 0.04

O=CN1CCOCC1 + c1ccccc1
298.15 K, 101.3 kPa
Details | viscosity [mPa·s]
x2 = 0.03787 | 6.858 ± 0.048
x2 = 0.07912 | 6.137 ± 0.044
x2 = 0.1309 | 5.329 ± 0.039
x2 = 0.22 | 4.199 ± 0.032
x2 = 0.3483 | 2.992 ± 0.023
x2 = 0.4314 | 2.381 ± 0.019
x2 = 0.5526 | 1.734 ± 0.014
x2 = 0.6351 | 1.413 ± 0.011
x2 = 0.7176 | 1.157 ± 0.01
x2 = 0.7536 | 1.058 ± 0.009
x2 = 0.83 | 0.88 ± 0.007
x2 = 0.894 | 0.767 ± 0.007
x2 = 0.9506 | 0.671 ± 0.006

S=C=S + c1ccccc1
298.15 K, 101 kPa
Details | viscosity [mPa·s]
x2 = 0.08675 | 0.376 ± 0.005
x2 = 0.3427 | 0.446 ± 0.006
x2 = 0.7541 | 0.544 ± 0.007

O=C1c2ccccc2C(=O)N1c1ccccc1 + c1ccncc1
Details | viscosity [mPa·s]
298.15 K, 101 kPa, x1 = 0.0129 | 0.9606 ± 0.19
